The text below walks through data of ChEMBL document CHEMBL1201862, “PubChem BioAssay data set” (2004).

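Results reflect a 48-hour exposure of cells in 96-well plates to compound at five concentrations. GI50: concentration for 50% inhibition of growth.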 The source made the active and inactive calls. Cut-off read from the data, not from the text of the source: active = GI50 up to about 1.1 µM and inactive = higher. A value given as a limit tells only on which side of the number the result lay.

Holding throughout (experiment): NCI anticancer screen, dose series, 48 h
Assay [1] deals with A549.
The test system of assay [2] is ACHN.
Assay [3] concerns CAKI-1.
Assay [4] deals with HT-29.
Assay [5] has as its system Hs-578T.
Assay [6] deals with K562.
Assay [7] concerns KM12.
For assay [8], the system named is LOX IMVI.
The test system of assay [9] is M14.
Assay [10] deals with Malme-3M.
Assay [11] concerns NCI-H23.
In assay [12] the test system is NCI/ADR-RES.
Assay [13] concerns OVCAR-5.
Assay [14] has as its system PC-3.
Assay [15] relates to SK-OV-3.
Assay [16] concerns SNB-75.
The test system of assay [17] is SW-620.
The subject of assay [18] is UACC-62.
In assay [19] the test system is A498.
Assay [20] relates to SR.

With `NC1CC(=O)c2cc(Cl)sc21` (configuration not stated), the GI50 was > 100 µM (inactive) in [1]; > 100 µM (inactive) in [2]; > 100 µM (inactive) in assay [3]; > 100 µM (inactive) in [4]; > 100 µM (inactive) in assay [5]; 0.929 µM (active) in assay [6]. Also, the GI50 in assay [7], in assay [8], in assay [9], in assay [10], in assay [11] and in assay [12] was > 100 µM (inactive) in each case. The GI50 in [13], in assay [14], in assay [15], in assay [16], in assay [17] and in assay [18] was > 100 µM (inactive) throughout.

As for `OC1=C2c3ccccc3NC2Oc2cc(F)ccc21` (configuration not stated), the GI50 in assay [19] is 15.3 µM (inactive); in assay [1], 19.5 µM (inactive); in [2], 18.7 µM (inactive); in assay [3], 19.5 µM (inactive); in assay [4], 19.8 µM (inactive); in assay [5], 34.7 µM (inactive). In addition, the GI50 in [6] was 15.6 µM (inactive); in assay [7] it was 15.4 µM (inactive); in [8], 16.4 µM (inactive); in assay [9], 17.3 µM (inactive); in assay [10], 20.4 µM (inactive); in [11] it was 12.9 µM (inactive). The GI50 is 16.2 µM (inactive) in [12]; 17.9 µM (inactive) in [13]; 18.8 µM (inactive) in assay [14]; 12.7 µM (inactive) in [15]; 19.6 µM (inactive) in assay [17]; 15.7 µM (inactive) in [18].

For `C[C@@H]1CCC[C@]2(C)O[C@H]2CC[C@@](C)(O)[C@@H]2CC3=C(CO)C(=O)O[C@H]3[C@H]1O2`, the GI50 in [19], in [1], in assay [2], in assay [3], in [4] and in assay [5] was > 50 µM (inactive) throughout. In addition, the GI50 in [6], in assay [7], in assay [8], in [9], in assay [11] and in assay [12] was > 50 µM (inactive) each time. Besides, the GI50 in assay [13], in assay [14], in assay [15], in assay [16], in assay [17] and in [18] was > 50 µM (inactive) throughout.

Regarding `CC1(C)O[C@@H](CP(c2cccc3ccccc23)c2cccc3ccccc23)[C@H](CP(c2cccc3ccccc23)c2cccc3ccccc23)O1`, the GI50 in assay [1], in assay [2], in assay [3], in assay [4], in [6] and in [7] was > 100 µM (inactive) throughout. For the same molecule, the GI50 in assay [8], in assay [9], in assay [11], in assay [12], in [13] and in assay [14] was > 100 µM (inactive) in each case. Besides, the GI50 in [15], in assay [16], in [20], in [17] and in assay [18] was > 100 µM (inactive) each time.

On to `Nc1nc(N)c(C2=CCN(Cc3ccccc3)CC2)c(=O)[nH]1`, for which the GI50 in [19], in assay [1], in [2], in assay [3], in [4] and in [5] was > 100 µM (inactive) throughout. For the same molecule, the GI50 in assay [6], in assay [7], in assay [9], in [10], in [11] and in assay [12] was > 100 µM (inactive) each time. Also, the GI50 in assay [13], in assay [14], in [15], in assay [16], in assay [17] and in assay [18] was > 100 µM (inactive) throughout.

Take `COc1ccc(P2(=S)Oc3ccccc3-c3ccccc3O2)cc1`: the GI50 in assay [19] was 0.306 µM (active); in assay [1], 0.449 µM (active); in assay [2], 0.728 µM (active); in [3], 0.271 µM (active); in assay [4], 0.274 µM (active); in [5] it was 0.466 µM (active). Besides, the GI50 in assay [6] was 0.196 µM (active); in assay [7], 0.499 µM (active); in assay [8], 0.661 µM (active); in [9], 0.574 µM (active); in [10] it was 0.438 µM (active); in assay [11], 0.579 µM (active). Besides, the GI50 in [12] is 0.902 µM (active); in assay [13], > 100 µM (inactive); in [14] it was 0.193 µM (active); in assay [16], 0.337 µM (active); in assay [17], 0.423 µM (active); in assay [18], 0.733 µM (active).

With `O=C(O)CN1C(=O)C(Cc2ccc(O)cc2)N=C(c2cccc(O)c2)c2ccccc21` (configuration not stated), the GI50 in assay [19] is 12 µM (inactive); in assay [1] it was > 100 µM (inactive); in assay [2], > 100 µM (inactive); in [4], > 100 µM (inactive); in [5] it was > 100 µM (inactive); in assay [6] it was > 100 µM (inactive). The GI50 in assay [7], in assay [8], in [9], in [10], in assay [13] and in assay [14] was > 100 µM (inactive) each time. The GI50 in [15] was > 100 µM (inactive); in [16] it was 40 µM (inactive); in assay [20] it was > 100 µM (inactive); in assay [17], > 100 µM (inactive); in [18], > 100 µM (inactive).

As to `COC(=O)[C@H]1ON2O[C@@H](O[C@H]3CCCC[C@@H]3C(C)(C)c3ccccc3)C[C@@H]3CC[C@H]1[C@@]32C`, the GI50 in assay [19], in assay [1], in [2], in assay [3], in [4] and in assay [5] was > 100 µM (inactive) each time. Also, the GI50 in assay [6], in assay [7], in assay [8], in assay [9], in assay [11] and in assay [12] was > 100 µM (inactive) in each case. The GI50 in assay [13], in [15], in [16], in assay [20], in assay [17] and in assay [18] was > 100 µM (inactive) each time.

Regarding `CC(C)CC(NC(=O)C(CSc1ccc([N+](=O)[O-])cc1)Cc1ccccc1)C(=O)Nc1ccccc1` (configuration not stated), the GI50 is > 100 µM (inactive) in assay [19]; 93.5 µM (inactive) in assay [1]; 80.7 µM (inactive) in assay [2]; 72.1 µM (inactive) in assay [3]; 85.5 µM (inactive) in assay [6]; 41.4 µM (inactive) in assay [7]. Also, the GI50 in [8] was > 100 µM (inactive); in assay [9], 99.8 µM (inactive); in [10] it was 27 µM (inactive); in [11], > 100 µM (inactive); in assay [12], 30.2 µM (inactive); in [13] it was > 100 µM (inactive). Also, the GI50 in assay [14] is > 100 µM (inactive); in assay [15], > 100 µM (inactive); in assay [16], 26.4 µM (inactive); in [20], > 100 µM (inactive); in assay [17], > 100 µM (inactive); in [18], > 100 µM (inactive).

With `COc1cc2cc[n+](C)c(Cc3ccc(Oc4cc(Cc5c6cc(OC)c(OC)cc6cc[n+]5C)ccc4OC)cc3)c2cc1OC`, the GI50 in assay [19], in assay [1], in [2], in assay [3], in [4] and in assay [5] was > 100 µM (inactive) each time. In addition, the GI50 was > 100 µM (inactive) in [6]; > 100 µM (inactive) in assay [7]; 79.8 µM (inactive) in [8]; > 100 µM (inactive) in [9]; > 100 µM (inactive) in assay [10]; > 100 µM (inactive) in assay [11]. Also, the GI50 in [13] is > 100 µM (inactive); in [14] it was 91.4 µM (inactive); in assay [15], > 100 µM (inactive); in [16], > 100 µM (inactive); in assay [20] it was > 100 µM (inactive); in assay [17], > 100 µM (inactive). Further, the GI50 in assay [18] was > 100 µM (inactive).

On to `CC(=O)O[C@@]12CO[C@@H]1C[C@H](O)[C@@]1(C)C(=O)[C@H](O)C3=C(C)[C@@H](OC(=O)[C@H](O)[C@@H](NC(=O)OC(C)(C)C)c4ccccc4)C[C@@](O)([C@@H](OC(=O)c4ccccc4)[C@H]21)C3(C)C` [DOCETAXEL], for which the GI50 in [19] was < 0.0851 µM (active); in assay [1] it was < 0.01 µM (active); in assay [2] it was 0.59 µM (active); in [3] it was 0.0417 µM (active); in assay [4], < 0.01 µM (active); in assay [5], 0.00104 µM (active). In addition, the GI50 was < 0.01 µM (active) in assay [6]; < 0.01 µM (active) in [7]; < 0.0585 µM (active) in [8]; > 10 µM (inactive) in assay [10]; < 0.01 µM (active) in [11]; < 0.01 µM (active) in assay [13]. The GI50 in assay [14] was 0.00578 µM (active); in [15] it was 0.0132 µM (active); in [16], < 0.01 µM (active); in [20] it was < 0.01 µM (active); in [17], < 0.01 µM (active); in assay [18], < 0.01 µM (active).
